Data reported in patent US12036226B2, “Methods of treating subjects having diabetes with chronic kidney disease” (Poxel SA, priority 2018, dated 2024).
Read-outs that look alike come from different tables or passages of the source.

Test: Phase 1 study of pharmacokinetics and safety of imeglimin in subjects with renal impairment compared to normal renal function
Assay type: in vivo, human
Settings: for concentration at 8 day / Vd/F / Tmax / Cmax / half-life / AUC / AUC(0-t) / CL renal: human, po; for concentration at 8 day / Vd/F / Tmax / Cmax / half-life / AUC / AUC(0-t): plasma; for Vd/F: read-out: Vz/F; for Tmax: median, read-out: tmax; for AUC: read-out: AUC0-τ; for CL renal: urine; for difference in exposure vs normal subjects: Day 8
Protocol: An open-label, parallel-group, multi-center, multiple oral dose study to investigate the pharmacokinetics of imeglimin in subjects with renal impairment compared to subjects with normal renal function was completed.
In this study, a total of 51 subjects received imeglimin at the daily dose of 1000 mg, administered either as 1000 mg QD (once a day) or 500 mg bid (twice a day) during 8 days. […] Twenty-four control subjects with normal renal function were matched to mild and moderate (10 receiving QD and 8 receiving bid regimen) and to severe (6 receiving bid regimen) renal impaired subjects. Measurement of the urine to plasma ratio of creatinine using 24 hours urine sampling was calculated (CLCrea).
Imeglimin was administered in the morning time during 8 consecutive days in the group of subjects receiving 1000 mg once a day and in the morning and evening time during 7 consecutive days followed by a morning administration of 500 mg in the morning time on Day 8 in the group of subjects receiving 500 mg twice a day. Morning administrations on Days 1 and 8 were performed on a fasted state, after a 10 hours overnight fasting and during 4 hours after imeglimin administration.
Inclusion Criteria: For subjects with normal renal functions: CLCrea>80 mL/min based on calculation using 24-hrs sampling on day −2. For subjects with impaired renal function: CLCrea 50 to 80 mL/min for subjects with mild renal impairment, 30 to <50 mL/min for subjects with moderate renal impairment, and <30 mL/min for subjects with severe renal impairment based on calculation using 24-hrs sampling on day −2.
Pharmacokinetic parameters included apparent volume of distribution during the terminal phase following extravascular administration (Vz/F), area under the curve of the plasma concentration as a function of time (AUC0-t), the maximum observed concentration (Cmax), the time to maximum concentration (tmax), the plasma half-life (t1/2), the total body clearance of drug from plasma following extravascular administration (CL/F), and other parameters.
The urinary excretion parameters of imeglimin in subjects with differing degrees of renal impairment following QD or bid oral doses of imeglimin on day 8 are summarized in Table 3 and Table 4. Parameters measured include amount of unchanged drug excreted in urine as a function of time (Ae0-t), renal clearance (CLR), and the amount of unchanged drug excreted in urine during one dosing interval (Ae0-τ), and the percentage of administered dose excreted in urine during one dosing interval (fe0-τ).
For the evaluation of safety and tolerability of multiple oral doses of 1000 mg imeglimin QD (i.e. a total dose of 8000 mg imeglimin) or 500 mg imeglimin BID (i.e. a total dose of 7500 mg imeglimin), laboratory tests (hematology, clinical chemistry, urinalysis), determination of vital signs, ECG recordings, questioning of AEs and physical examinations were performed. […] The incidence of AEs observed within the course of the study was low. Overall 31 out of 51 subjects reported 54 treatment emergent AEs. Of these, only 15 were judged as likely related to the study drug. The majority (39 AEs) were assessed as unlikely related. Based on these low incidence no clear differences between the dose regimens and between the renal impairment groups can be shown.

[1] = 500 mg, 500 mg bid oral, Day 8, Part 1 normal renal function (N = 8), geometric mean
[2] = 500 mg, 500 mg bid oral, Day 8, Part 2 CKD Stage 4 (severe renal impairment; N = 5), geometric mean
[3] = 500 mg, 500 mg bid oral, Day 8, Part 2 normal renal function (N = 6), geometric mean
[4] = 1000 mg, 1000 mg QD oral, Day 8, CKD Stage 3 (moderate renal impairment; N = 6), geometric mean
[5] = 1000 mg, 1000 mg QD oral, Day 8, CKD stage 2 (mild renal impairment; N = 5), geometric mean
[6] = 1000 mg, 1000 mg QD oral, Day 8, normal renal function (N = 8), geometric mean
[7] = 1000 mg, 1000 mg QD oral, Day 8, normal renal function (N = 10), geometric mean

Structure (SMILES): C[C@H]1N=C(N(C)C)N=C(N)N1 [imeglimin, (6R)—N^2, N^2,6-trimethyl-3,6-dihydro-1,3,5-triazine-2,4-diamine]
- concentration at 8 day (500 mg, 500 mg bid oral, Day 8, Part 1 CKD Stage 3 (moderate renal impairment; N = 6), geometric mean, read-out: Cav): 1430 ng/mL
- Vd/F (500 mg, 500 mg bid oral, Day 8, Part 1 CKD Stage 3 (moderate renal impairment; N = 6), geometric mean): 922 L
- Tmax (500 mg, 500 mg bid oral, Day 8, Part 1 CKD Stage 3 (moderate renal impairment; N = 6)): 3.5 h
- Cmax [1]: 1030 ng/mL
- half-life [1]: 13.2 h
- AUC [1]: 7390 ng·h/mL
- concentration at 8 day (500 mg, 500 mg bid oral, Day 8, Part 1 normal renal function (N = 8), geometric mean, read-out: Cav): 616 ng/mL
- concentration at 8 day (500 mg, 500 mg bid oral, Day 8, Part 1 normal renal function (N = 8), geometric mean, read-out: Cmin): 202 ng/mL
- Vd/F [1]: 1290 L
- Tmax (500 mg, 500 mg bid oral, Day 8, Part 1 normal renal function (N = 8)): 3.5 h
- Cmax [2]: 2860 ng/mL
- half-life [2]: 17.6 h
- AUC [2]: 24800 ng·h/mL
- concentration at 8 day (500 mg, 500 mg bid oral, Day 8, Part 2 CKD Stage 4 (severe renal impairment; N = 5), geometric mean, read-out: Cav): 2070 ng/mL
- Vd/F [2]: 511 L
- Tmax (500 mg, 500 mg bid oral, Day 8, Part 2 CKD Stage 4 (severe renal impairment; N = 5)): 3.5 h
- Cmax [3]: 998 ng/mL
- half-life [3]: 15 h
- AUC [3]: 6970 ng·h/mL
- concentration at 8 day (500 mg, 500 mg bid oral, Day 8, Part 2 normal renal function (N = 6), geometric mean, read-out: Cav): 581 ng/mL
- Vd/F [3]: 1550 L
- Tmax (500 mg, 500 mg bid oral, Day 8, Part 2 normal renal function (N = 6)): 3.75 h
- AUC(0-t) [4]: 29100 ng·h/mL
- Cmax [4]: 2570 ng/mL
- half-life [4]: 23.4 h
- concentration at 8 day (1000 mg, 1000 mg QD oral, Day 8, CKD Stage 3 (moderate renal impairment; N = 6), geometric mean, read-out: Cav): 1210 ng/mL
- concentration at 8 day (1000 mg, 1000 mg QD oral, Day 8, CKD Stage 3 (moderate renal impairment; N = 6), geometric mean, read-out: Cmin): 335 ng/mL
- Vd/F [4]: 1160 L
- Tmax (1000 mg, 1000 mg QD oral, Day 8, CKD Stage 3 (moderate renal impairment; N = 6)): 5 h
- AUC(0-t) [5]: 20100 ng·h/mL
- Cmax [5]: 2050 ng/mL
- half-life [5]: 15 h
- concentration at 8 day (1000 mg, 1000 mg QD oral, Day 8, CKD stage 2 (mild renal impairment; N = 5), geometric mean, read-out: Cav): 838 ng/mL
- concentration at 8 day (1000 mg, 1000 mg QD oral, Day 8, CKD stage 2 (mild renal impairment; N = 5), geometric mean, read-out: Cmin): 178 ng/mL
- Vd/F [5]: 1070 L
- Tmax (1000 mg, 1000 mg QD oral, Day 8, CKD stage 2 (mild renal impairment; N = 5)): 4 h
- half-life [6]: 16.4 h
- Vd/F [6]: 1570 L
- AUC(0-t) [7]: 15400 ng·h/mL
- Cmax [7]: 1750 ng/mL
- concentration at 8 day (1000 mg, 1000 mg QD oral, Day 8, normal renal function (N = 10), geometric mean, read-out: Cmin): 115 ng/mL
- Tmax (1000 mg, 1000 mg QD oral, Day 8, normal renal function (N = 10)): 4 h
- CL renal (500 mg, 500 mg bid oral, Day 8, CKD Stage 2 (mild renal impairment) (N = 4), geometric mean (CV %), read-out: CLR): 323 mL/min
- CL renal (500 mg, 500 mg bid oral, Day 8, CKD Stage 3 (moderate renal impairment) (N = 6), geometric mean (CV %), read-out: CLR): 193 mL/min
- CL renal (500 mg, 500 mg bid oral, Day 8, CKD Stage 4 (severe renal impairment) (N = 5), geometric mean (CV %), read-out: CLR): 140 mL/min
- CL renal (500 mg, 500 mg bid oral, Day 8, normal renal function (N = 6), geometric mean (CV %), read-out: CLR): 548 mL/min
- CL renal (500 mg, 500 mg bid oral, Day 8, normal renal function (N = 8), geometric mean (CV %), read-out: CLR): 501 mL/min
- CL renal (1000 mg, 1000 mg QD oral, Day 8, CKD Stage 2 (mild renal impairment), N = 2, min, max, read-out: CLR (renal clearance)): 388 to 522 mL/min
- CL renal (1000 mg, 1000 mg QD oral, Day 8, CKD Stage 3 (moderate renal impairment) (N = 6), geometric mean, read-out: CLR (renal clearance)): 197 mL/min
- CL renal (1000 mg, 1000 mg QD oral, Day 8, normal renal function (N = 10), geometric mean, read-out: CLR (renal clearance)): 418 mL/min
- difference in exposure vs normal subjects (mild renal impairment): up to 1.5 fold
- difference in exposure vs normal subjects (moderate renal impairment): ≤ 2.3 fold
- AEs assessed as unlikely related (of 54 treatment emergent AEs): 39
- AEs judged as likely related to the study drug (of 54 treatment emergent AEs): 15
- Steady-state attained by (repeated dosing of 1000 mg QD and 500 mg bid): ≤ 6 days
- decrease in renal clearance vs normal subjects (severe renal impairment): ≤ 74%
- decrease in total oral body clearance vs normal subjects (severe renal impairment): up to 72%
- difference in exposure vs normal subjects (severe renal impairment): up to 3.6 fold
- general safety and tolerability assessment (total daily dose of 1000 mg over 8 days): good or very good tolerability
